Several values for one entry are separate records, joined by “and”; a condition that tells them apart may be missing. Equal entries are not always repeated.
Assays:
Format in all cases: cell-based
H1299 = assay: MTT assay, growth inhibition by deguelin or deguelin derivatives; conditions: H1299, 3 days
H441 = assay: as above; conditions: 3 days
[1] = test system: caspase-3, PARP, Bax, Bcl-2, Bcl-xL in 1799 cells; assay: Western blot of caspase-3, PARP and Bcl family proteins
Protocol: Immunoblotting. Whole cell lysates were prepared in lysis buffer (50 mM N-[2-hydroxymethyl]-piperazine-N′-[2-ethanesulfonic acid] [HEPES; pH 7.5], 150 mM NaCl, 1.5 mM MgCl2, ImM EDTA, 0.2 mM EGTA, 1% NP40, 10% glycerol, 1 mM dithiothreitol (DTT), 1 mM phenylmethylsulfonyl fluoride, 20 mM sodium fluoride, 5 mM sodium orthovanadate, 10 μg/ml aprotinin, 10 μg/ml leupeptin, 2 μg/ml pepstatin, and 1 mM benzamidine) as described previously (Lee et al., 2002). Equivalent protein concentrations were resolved in sodium dodecyl sulfate-polyacrylamide gels and transferred to a nitrocellulose membrane. After the blocking of transblotted membrane in Tris-buffered saline (TBS) containing 0.05% Tween 20 (TBST) and 5% low fat milk, themembrane was incubated with primary antibody at the appropriate dilution in TBS-5% low-fat milk at 4° C. for 16 h and washed with TBST. The immunoblots were visualized using the ECL kit (Amersham, Inc., Arlington Heights, III) according to the manufacturer's directions. Rabbit polyclonal antibodies against human pAkt (Ser473), Akt, and pGSK-3β (Ser9), and mouse monoclonal antibody against human anti-pMAPK (Thr202/Tyr204) were purchased from Cell Signalinng Technology (Beverly, Mass.). Rabbit polyclonal anti-glycogen synthase (GSK)-3 α/β (BD Transduction Laboratories, Lexington, Ky.), rabbit polyclonal anti-Bax and anti-caspase-3 antibodies (Pharmingen, San Diego, Calif.), rabbit polyclonal anti-Bcl2 and rabbit polyclonal anti-poly (ADP-ribose) polymerase O?ARP) antibody (VIC 5) (Roche Molecular Biochemicals, Indianapolis, Ind.), goat antibodies against Erk-1, Erk-2, and β-Actin (Santa Cruz Biotechnology, Inc., Santa Cruz, Calif.) were used for western blot analysis.

NHBE cells = assay: Apoptosis assay (TUNEL; DNA fragmentation)
Protocol: Apoptosis assay. Normal, premalignant, and malignant HBE cells were exposed to v various doses of deguelin for 3 days. […] Both adherent and floating cells were combined for the assessment of apoptosis using the APO-BRDU staining kit (Phoenix Flow Systems, San Diego, Calif.). Briefly, floating and attached cells dispersed with trypsin-EDTA were pelleted, washed, and fixed by 1% paraformaldehyde followed by 70% ethanol. The fixed cells were washed and incubated with DNA-labeling solution containing terminal deoxynucleotidyl transferase (TdT) reaction buffer, TdT enzyme, and bromodeoxyuridine triphosphate (Br-dUTP). Cells were rinsed, resuspended with fluorescein-PRB-I antibody solution, and analyzed by flow cytometry in the presence of PI/RNase solution. […] A dual display of DNA area (linear red fluorescence) and Br-dUTP incorporation (FITC-PRB-1) was used to determine the percentage of apoptotic cells.
The percentage of dead cells was determined by fluorescent-activated cell sorting (FACS) analysis of PI-stained nuclei. Apoptosis was also determined by the detection of nucleosomal DNA fragmentation, which was measured using the TACS apoptotic DNA Jaddering kit (Trevigen, Inc., Gaithersburg, Md.) according to the manufacturer's protocol. […] Apoptosis was analyzed using the APO-BRDU staining kit (Phoenix Flow Systems) as described above.

A549 = assay: MTT assay, growth inhibition by deguelin or deguelin derivatives; conditions: A549, 3 days
ERK1/2 (MAPK) = assay: ERK 1/2 kinase assay (MBP phosphorylation, immunoprecipitate of treated cells); conditions: 1799 cells, 10^−7 M deguelin
Protocol: ERK 1/2 Kinase assay. ERK1/2 activity was determined by analyzing MAPK-induced phosphorylation of myelin basic protein (MBP) as previously described (Lee et al., 2002). Briefly, 1799 cells cultured in KSFM containing 10^−7 M deguelin for different time periods were lysed in lysis buffer, and ERK-1 and -2 were immunoprecipitated from 100 μg of cell extracts with antibodies (1 μg) that recognize ERK-1 and -2 (Santa Cruz Biotechnology) by rotation at 4° C. for overnight. The total volume was adjusted to 0.5 ml with lysis buffer. Protein A sepharose beads (20 μl) (Amersham Pharmacia Biotech) were added and incubated at 4° C. for 2 hour. The beads were washed three times with lysis buffer and once with kinase buffer (20 MM Hepes [pH 7.5], 20 mM β-glycerol phosphate, 10 mM PNPP, 10 mM MgCl2, 1 mM dithiothreitol, 50 mM sodium vanadate). Kinase assays were performed by incubating the beads with 30 μl kinase buffer to which […], 5 μCi [γ^32P] ATP (2000 cpm/pmol), and 2 μg MBP (Cell Signaling Technology) were added. The kinase reaction was performed at 30° C. for 20 min. The samples were suspended in Laemmli buffer, boiled for 5 min, and the samples were analyzed by SDS-PAGE. The gel was dried and autoradiographed.

Compound: COc1cc2c(cc1OC)[C@@H]1C(=O)c3ccc4c(c3O[C@@H]1CO2)C=CC(C)(C)O4 [Deguelin]
- Avg. % con (H1299; deguelin 10^−6M): 0.36 % con
- MTT value, mean of replicates (unheaded line) (H1299; deguelin 10^−6M): 0.048
- MTT value, replicate (unheaded line) (H1299; deguelin 10^−6M): 0.052 and 0.043 and 0.049
- Avg. % con (H1299; deguelin 10^−8M): 0.78 % con
- MTT value, mean of replicates (unheaded line) (H1299; deguelin 10^−8M): 0.104
- MTT value, replicate (unheaded line) (H1299; deguelin 10^−8M): 0.101 and 0.108 and 0.103
- Avg. % con (H1299; deguelin 10^−10M): 0.73 % con
- MTT value, mean of replicates (unheaded line) (H1299; deguelin 10^−10M): 0.098
- MTT value, replicate (unheaded line) (H1299; deguelin 10^−10M): 0.119 and 0.087 and 0.089
- Avg. % con (H1299; deguelin 10^−12M): 0.98 % con
- MTT value, mean of replicates (unheaded line) (H1299; deguelin 10^−12M): 0.132
- MTT value, replicate (unheaded line) (H1299; deguelin 10^−12M): 0.121 and 0.136 and 0.138
- Avg. % con (H441; deguelin 10^−6M): 0.82 % con
- MTT value, mean of replicates (unheaded line) (H441; deguelin 10^−6M): 0.181
- MTT value, replicate (unheaded line) (H441; deguelin 10^−6M): 0.18 (2×) and 0.183
- Avg. % con (H441; deguelin 10^−8M): 0.94 % con
- MTT value, mean of replicates (unheaded line) (H441; deguelin 10^−8M): 0.207
- MTT value, replicate (unheaded line) (H441; deguelin 10^−8M): 0.209 and 0.203 and 0.21
- Avg. % con (H441; deguelin 10^−10M): 1.01 % con
- MTT value, mean of replicates (unheaded line) (H441; deguelin 10^−10M): 0.223
- MTT value, replicate (unheaded line) (H441; deguelin 10^−10M): 0.21 and 0.231 and 0.229
- Avg. % con (H441; deguelin 10^−12M): 1.12 % con
- MTT value, mean of replicates (unheaded line) (H441; deguelin 10^−12M): 0.247
- MTT value, replicate (unheaded line) (H441; deguelin 10^−12M): 0.234 and 0.259 and 0.249
- Bcl-2 expression [1]: mild decrease
- Bcl-xL level [1]: not affected
- level of Bax [1]: dose-dependent increase
- 32-kDa caspase-3 proenzyme (with increase of 89-kDa PARP fragment) ([1]; more than 10^−8 M deguelin, 3 days): significant decrease
- TUNEL and DNA fragmentation in NHBE cells (NHBE cells): neither TUNEL-positive cell population nor DNA fragmentation
- Avg. % con (A549; deguelin 10^−6M): 0.13 % con
- MTT value, mean of replicates (unheaded line) (A549; deguelin 10^−6M): 0.060
- MTT value, replicate (unheaded line) (A549; deguelin 10^−6M): 0.057 (2×) and 0.066
- Avg. % con (A549; deguelin 10^−8M): 0.83 % con
- MTT value, mean of replicates (unheaded line) (A549; deguelin 10^−8M): 0.382
- MTT value, replicate (unheaded line) (A549; deguelin 10^−8M): 0.381 (2×) and 0.385
- Avg. % con (A549; deguelin 10^−10M): 0.88 % con
- MTT value, mean of replicates (unheaded line) (A549; deguelin 10^−10M): 0.408
- MTT value, replicate (unheaded line) (A549; deguelin 10^−10M): 0.375 and 0.422 and 0.427
- Avg. % con (A549; deguelin 10^−12M): 0.89 % con
- MTT value, mean of replicates (unheaded line) (A549; deguelin 10^−12M): 0.411
- MTT value, replicate (unheaded line) (A549; deguelin 10^−12M): 0.416 and 0.404 and 0.412
- MAPK activity (ERK1/2 (MAPK)): not affected
